{
  "source": "patent US20040186166A1",
  "about": "“Cannabinoid analogs as peroxisome proliferator activated nuclear receptor gamma activators” (priority 2002, published 2004)",
  "key": {"[1]": {"molecular_target": "T1, PPARγ / GST-RAC3 (amino acids 613-752) (Mus musculus, UniProt P37238)", "T1 construct": "made in house; host or cells: PPARγ1: reticulocyte lysate; GST-RAC3: E. coli BL21, kept on glutathione-Sepharose beads", "T1 sequence (P37238 1-475 isoform P37238-2)": "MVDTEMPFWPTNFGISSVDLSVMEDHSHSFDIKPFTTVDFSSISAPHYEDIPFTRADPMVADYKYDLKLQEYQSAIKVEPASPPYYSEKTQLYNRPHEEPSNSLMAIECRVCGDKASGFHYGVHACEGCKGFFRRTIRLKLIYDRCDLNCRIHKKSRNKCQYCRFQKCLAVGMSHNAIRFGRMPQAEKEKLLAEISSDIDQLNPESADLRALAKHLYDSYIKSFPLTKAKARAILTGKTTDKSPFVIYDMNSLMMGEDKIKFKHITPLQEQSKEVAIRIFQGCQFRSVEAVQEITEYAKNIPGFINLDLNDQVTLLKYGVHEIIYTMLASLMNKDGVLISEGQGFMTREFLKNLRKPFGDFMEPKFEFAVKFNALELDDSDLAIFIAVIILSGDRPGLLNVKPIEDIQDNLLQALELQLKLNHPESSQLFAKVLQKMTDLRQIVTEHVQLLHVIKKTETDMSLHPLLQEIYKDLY", "T1 sequence (Q9Y6Q9 613-752 partner limits assumed)": "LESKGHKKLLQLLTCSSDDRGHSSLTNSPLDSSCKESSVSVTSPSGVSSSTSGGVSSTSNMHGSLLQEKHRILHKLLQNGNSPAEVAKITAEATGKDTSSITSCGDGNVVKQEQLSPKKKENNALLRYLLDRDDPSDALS", "assay": "GST pull-down assay, PPARγ with GST-RAC3", "assay_type": "binding", "settings": "20 μM AJA", "description": "(§1) The glutathione S-transferase (GST)-DRIP205 (amino acid 527-970) and GST-RAC3 RID (amino acid 613-752) fusion proteins were expressed in BL21 cells by induction with 0.1 mM isopropyl-β-D-thiogalactopyranoside (IPTG) at room temperature for 4 hours. The bacterial pellet was resuspended in STE buffer (150 mM NaCl, 10 mM Tris pH 8.0, 1 mM EDTA), containing 5 mM dithiothreitol (DTT), 1 mM phenylmethlsulfonyl fluoride (PMSF) and 1.5% Sarkosyl. The cell suspension was sonicated and centrifuged at 7400 rpm at 4° C. for 30 minutes. The supernatant was isolated and 0.02% Triton-X 100 was added, and the mixture was then incubated with 1 ml 50% slurry of glutathione-Sepharose beads on a rotator at 4° C. for 30 minutes. The beads were spun down at 3000 rpm for 10 minutes, the supernatant was removed, and the beads were suspended in 1 ml cold PBS.\n(§2) Approximately 5 μg of GST-DRIP205 or GST-RAC3 bound on glutathione-Sepharose beads and 4 μl ^35S-methionine-labeled mPPARγ1 were incubated with the indicated concentrations of AJA, GW347845, or vehicle alone in H buffer (20 mM Hepes [pH 7.7], 75 mM KCl, 0.1 mM EDTA, 2.5 mM MgCl2, 0.05% NP40, 0.1 mM methionine, 1 mM DTT) containing 1 mg/ml bovine serum albumin (BSA) on a rotator at 4° C. overnight. After three washes with cold PBS, the bound protein was eluted in SDS sample buffer and boiled for 10 min before SDS-PAGE and autoradiography. […]"}, "[2]": {"molecular_target": "T2, PPARγ / GST-DRIP205 (amino acids 527-970) (Mus musculus, UniProt P37238)", "T2 construct": "made in house; host or cells: PPARγ1: reticulocyte lysate; GST-DRIP205: E. coli BL21, kept on glutathione-Sepharose beads", "T2 sequence (Q15648 527-970 partner limits assumed, one chain of several)": "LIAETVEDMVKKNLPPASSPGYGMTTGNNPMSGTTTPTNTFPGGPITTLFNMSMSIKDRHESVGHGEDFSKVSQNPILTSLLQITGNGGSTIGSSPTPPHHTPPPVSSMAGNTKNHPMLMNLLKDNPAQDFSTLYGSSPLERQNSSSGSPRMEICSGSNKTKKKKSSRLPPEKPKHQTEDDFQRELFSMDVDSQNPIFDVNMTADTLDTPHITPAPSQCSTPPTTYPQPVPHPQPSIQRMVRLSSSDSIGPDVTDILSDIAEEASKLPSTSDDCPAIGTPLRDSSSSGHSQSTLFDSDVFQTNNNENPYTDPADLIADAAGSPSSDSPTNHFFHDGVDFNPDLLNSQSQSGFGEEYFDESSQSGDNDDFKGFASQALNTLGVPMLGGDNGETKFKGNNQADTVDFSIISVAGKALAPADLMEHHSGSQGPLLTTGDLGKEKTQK", "assay": "GST pull-down assay, PPARγ with GST-DRIP205", "assay_type": "binding", "settings": "20 μM AJA", "description": "as §1, §2"}, "PPARα": {"molecular_target": "T3, PPARα (Mus musculus, UniProt P23204)", "T3 construct": "expressed in transfected cells; host or cells: HEK293 / HEK293T", "T3 sequence (P23204 1-468)": "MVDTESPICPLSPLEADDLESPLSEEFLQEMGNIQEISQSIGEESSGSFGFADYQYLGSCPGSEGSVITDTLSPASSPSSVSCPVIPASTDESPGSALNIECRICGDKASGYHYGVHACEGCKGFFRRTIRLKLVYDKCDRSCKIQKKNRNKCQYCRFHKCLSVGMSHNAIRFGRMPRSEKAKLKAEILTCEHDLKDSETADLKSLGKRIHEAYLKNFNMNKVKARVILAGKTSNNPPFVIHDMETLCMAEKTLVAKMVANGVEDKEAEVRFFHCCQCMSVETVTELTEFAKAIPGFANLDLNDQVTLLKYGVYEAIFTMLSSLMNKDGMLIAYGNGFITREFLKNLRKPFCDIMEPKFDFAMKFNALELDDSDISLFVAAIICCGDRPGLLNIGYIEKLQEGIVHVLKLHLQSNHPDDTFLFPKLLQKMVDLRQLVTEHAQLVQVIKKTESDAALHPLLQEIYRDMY", "assay": "PPRE-TK-LUC reporter transient transfection, PPARα", "assay_type": "cell-based", "settings": "1 to 20 μM AJA", "description": "For PPARγ activation assay, HEK293 cells were plated in 12-well cell culture plates and maintained in Dulbecco's modified Eagle's medium (DMEM) supplemented with 10% fetal bovine serum (FBS) at 37° C. under 5% CO2. Cells were changed to phenol red-free DMEM supplemented with 10% charcoal-stripped fetal bovine serum 3 hours before transfection by a standard calcium-phosphate precipitation method. Twelve hours after transfection, the cells were washed with phosphate-buffered saline (PBS) and fed again with fresh medium containing the indicated concentrations of compounds. After 36 hours, cells were harvested for β-galactosidase and luciferase activities as described previously (Li et al., Proc Natl Acad Sci USA 94:8479-84, 1997). The average normalized luciferase activity was determined via triplicate experiments. For IL-8 promoter assay, HeLa cells were maintained and transfected in the same way as described above. After transfection, cells were recovered for 4 hours before treatment with AJA, GW347845, or solvent. After 3-4 hours, cells were treated with or without 25 nM of phorbol myristate acetate (PMA) for 24 hours.\nIn an effort to confirm that AJA activates PPARγ selectively, the ability of AJA to activate PPARα and PPARδ was analyzed in a similar transient transfection assay."}, "[3]": {"settings": "IL-1β and TNFα injected into subcutaneous air pouches, mice; cited from earlier work"}},
  "data": [
    {"smiles": "CCCCCCC(C)(C)c1cc(O)c2c(c1)OC(C)(C)[C@@H]1CC=C(C(=O)O)C[C@@H]21", "note": "[AJA, dimethylheptyl-THC-11-oic acid]", "values": [
      {"measurement": "binding of PPARγ to GST-RAC3", "setting": "[1]", "result": "increased binding"},
      {"measurement": "binding of PPARγ to GST-DRIP205", "setting": "[2]", "result": "increased binding"},
      {"measurement": "activation of PPARα", "setting": "PPARα", "result": "no further activation was observed"},
      {"measurement": "acute inflammation", "setting": "[3]", "result": "suppress"}
    ]}
  ]
}
